Measured values from ChEMBL document CHEMBL1909046, “DrugMatrix in vitro pharmacology data”.

Experiments:
[1] = DRUGMATRIX: Atrial Natriuretic Factor (ANF) radioligand binding (ligand: [125I] ANF (rat)); format: cell membranes, Cavia porcellus, Dunkin-Hartley, Adrenal gland, Membrane; details: Not Active = under 50% inhibition at 10 µM
B2 bradykinin receptor = target: T1, B2 bradykinin receptor (Homo sapiens, UniProt P30411); format: cell membranes, Membrane; details: chem-1; further: in other assays of this panel Not Active means under 50% inhibition at 10 µM
T1 sequence (P30411 whole entry): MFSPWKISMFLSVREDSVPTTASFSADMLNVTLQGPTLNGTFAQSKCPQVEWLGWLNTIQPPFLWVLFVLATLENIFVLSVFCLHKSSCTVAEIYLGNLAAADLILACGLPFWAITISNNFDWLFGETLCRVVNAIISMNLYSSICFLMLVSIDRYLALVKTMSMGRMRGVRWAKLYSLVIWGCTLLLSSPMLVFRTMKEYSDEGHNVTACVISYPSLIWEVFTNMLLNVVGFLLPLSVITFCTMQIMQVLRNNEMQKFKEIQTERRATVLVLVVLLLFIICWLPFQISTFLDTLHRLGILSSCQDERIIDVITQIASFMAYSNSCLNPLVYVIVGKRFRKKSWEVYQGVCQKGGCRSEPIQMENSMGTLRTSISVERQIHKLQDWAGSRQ

[2] = target: 5-hydroxytryptamine receptor 2B (Homo sapiens, UniProt P41595); format: cell membranes, CHO-K1, Membrane; details: cho-k1; further: in other assays of this panel Not Active means under 50% inhibition at 10 µM
Substance-P receptor = Substance-P receptor (Homo sapiens, UniProt P25103); format: cell membranes, CHO, Membrane; details: cho; further: in other assays of this panel Not Active means under 50% inhibition at 10 µM
Carbonic anhydrase 2 = Carbonic anhydrase 2 (Homo sapiens, UniProt P00918); test: DRUGMATRIX: Carbonic Anhydrase II enzyme inhibition (substrate: 4-Nitrophenyl acetate (4-NPA)); format: tissue-based, Erythrocyte; details: erythrocyte; Not Active = under 50% inhibition at 10 µM
[3] = DRUGMATRIX: Glutamate, NMDA, Agonism radioligand binding (ligand: [3H] CGP-39653); format: cell membranes, Rattus norvegicus, Wistar, Cerebral cortex, Membrane; details: Not Active = under 50% inhibition at 10 µM
[4] = DRUGMATRIX: Leukotriene, BLT (LTB4) radioligand binding (ligand: [3H]LTB4); format: cell membranes, Membrane; details: u-937; Not Active = under 50% inhibition at 10 µM
[5] = target: Delta-type opioid receptor (Homo sapiens, UniProt P41143); format: cell membranes, HEK293, Membrane; details: hek293; further: in other assays of this panel Not Active means under 50% inhibition at 10 µM
[6] = DRUGMATRIX: Purinergic P2X radioligand binding (ligand: [3H] alpha, beta-Methylene-ATP); format: cell membranes, Oryctolagus cuniculus, New Zealand albino, Urinary bladder, Membrane; details: Not Active = under 50% inhibition at 10 µM

Sequence of Substance-P receptor (P25103 whole entry): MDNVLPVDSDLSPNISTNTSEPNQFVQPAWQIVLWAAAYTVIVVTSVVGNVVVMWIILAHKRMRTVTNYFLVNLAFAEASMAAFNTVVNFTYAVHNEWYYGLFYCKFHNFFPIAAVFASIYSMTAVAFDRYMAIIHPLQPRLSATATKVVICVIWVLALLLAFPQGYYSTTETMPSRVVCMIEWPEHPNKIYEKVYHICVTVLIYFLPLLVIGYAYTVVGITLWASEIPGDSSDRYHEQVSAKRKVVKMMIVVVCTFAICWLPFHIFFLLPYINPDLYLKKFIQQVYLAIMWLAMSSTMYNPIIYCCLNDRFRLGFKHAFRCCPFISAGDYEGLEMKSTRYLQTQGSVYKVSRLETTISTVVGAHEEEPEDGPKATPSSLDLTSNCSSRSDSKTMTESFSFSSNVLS
Sequence of Delta-type opioid receptor (P41143 whole entry): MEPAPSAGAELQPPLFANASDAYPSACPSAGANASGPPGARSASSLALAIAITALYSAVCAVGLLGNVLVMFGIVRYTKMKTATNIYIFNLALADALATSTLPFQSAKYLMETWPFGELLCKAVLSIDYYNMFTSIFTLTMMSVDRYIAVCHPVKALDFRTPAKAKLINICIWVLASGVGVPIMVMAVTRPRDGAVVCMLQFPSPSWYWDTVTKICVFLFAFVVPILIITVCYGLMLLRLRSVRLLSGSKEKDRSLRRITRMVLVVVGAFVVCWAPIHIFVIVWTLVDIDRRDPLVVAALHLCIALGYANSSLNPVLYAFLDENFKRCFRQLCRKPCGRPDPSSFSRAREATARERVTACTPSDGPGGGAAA
Sequence of 5-hydroxytryptamine receptor 2B (P41595 whole entry): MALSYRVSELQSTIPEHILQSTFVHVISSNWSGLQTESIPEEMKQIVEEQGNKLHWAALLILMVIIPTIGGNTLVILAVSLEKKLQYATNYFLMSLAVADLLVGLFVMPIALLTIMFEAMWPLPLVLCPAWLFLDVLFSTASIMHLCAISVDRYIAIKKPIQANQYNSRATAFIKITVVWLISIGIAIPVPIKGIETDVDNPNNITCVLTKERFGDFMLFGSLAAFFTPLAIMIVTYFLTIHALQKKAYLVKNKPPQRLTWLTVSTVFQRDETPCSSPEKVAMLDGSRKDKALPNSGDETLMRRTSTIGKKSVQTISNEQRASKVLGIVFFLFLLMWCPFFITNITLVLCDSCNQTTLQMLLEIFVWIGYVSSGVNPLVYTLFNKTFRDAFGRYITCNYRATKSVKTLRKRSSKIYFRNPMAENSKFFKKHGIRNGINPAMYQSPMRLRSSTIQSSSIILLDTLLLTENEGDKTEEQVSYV

COc1ccc(C[C@H]2NC[C@H](O)[C@H]2OC(C)=O)cc1 [ANISOMYCIN]
Not Active: IC50 [1] | Ki [1] | IC50 (B2 bradykinin receptor) | Ki (B2 bradykinin receptor) | IC50 [2] | Ki [2] | IC50 (Substance-P receptor) | Ki (Substance-P receptor) | IC50 (Carbonic anhydrase 2) | Ki (Carbonic anhydrase 2) | IC50 [3] | Ki [3] | IC50 [4] | Ki [4] | IC50 [5] | Ki [5] | IC50 [6] | Ki [6]

Nc1ncn([C@@H]2O[C@H](CO)[C@@H](O)[C@H]2O)c(=O)n1 [AZACITIDINE]
Not Active: IC50 [1] | Ki [1] | IC50 (B2 bradykinin receptor) | IC50 [2] | IC50 (Substance-P receptor) | IC50 (Carbonic anhydrase 2) | IC50 [3] | Ki [3] | IC50 [4] | Ki [4] | IC50 [5] | IC50 [6] | Ki [6]

CN(C)C(=O)Oc1cc(OC(=O)N(C)C)cc(C(O)CNC(C)(C)C)c1 (stereo not given) [BAMBUTEROL]
Not Active: IC50 [1] | Ki [1] | IC50 (B2 bradykinin receptor) | IC50 [2] | IC50 (Substance-P receptor) | IC50 (Carbonic anhydrase 2) | IC50 [3] | Ki [3] | IC50 [4] | Ki [4] | IC50 [5] | IC50 [6] | Ki [6]

c1ccc2c(c1)c1cccc3ccc4cccc2c4c31 [BENZO[E]PYRENE]
Not Active: IC50 [1] | Ki [1] | IC50 (B2 bradykinin receptor) | IC50 [2] | IC50 (Substance-P receptor) | IC50 (Carbonic anhydrase 2) | IC50 [3] | Ki [3] | IC50 [4] | Ki [4] | IC50 [5] | IC50 [6] | Ki [6]

CNCCc1ccccn1 [BETAHISTINE]
Not Active: IC50 [1] | Ki [1] | IC50 (B2 bradykinin receptor) | IC50 [2] | IC50 (Substance-P receptor) | IC50 (Carbonic anhydrase 2) | IC50 [3] | Ki [3] | IC50 [4] | Ki [4] | IC50 [5] | IC50 [6] | Ki [6]

CC(C)C(Br)C(=O)NC(N)=O (stereo not given) [BROMISOVALUM]
Not Active: IC50 [1] | Ki [1] | IC50 (B2 bradykinin receptor) | IC50 [2] | IC50 (Substance-P receptor) | IC50 (Carbonic anhydrase 2) | IC50 [3] | Ki [3] | IC50 [4] | Ki [4] | IC50 [5] | IC50 [6] | Ki [6]

CCCC1O[C@@H]2C[C@H]3[C@@H]4CCC5=CC(=O)C=C[C@]5(C)[C@H]4[C@@H](O)C[C@]3(C)[C@]2(C(=O)CO)O1 (stereo not given in full) [BUDESONIDE]
Not Active: IC50 [1] | Ki [1] | IC50 (B2 bradykinin receptor) | IC50 [2] | IC50 (Substance-P receptor) | IC50 (Carbonic anhydrase 2) | IC50 [3] | Ki [3] | IC50 [4] | Ki [4] | IC50 [5] | IC50 [6] | Ki [6]

CC(NC(C)(C)C)C(=O)c1cccc(Cl)c1 (stereo not given) [BUPROPION]
Not Active: IC50 [1] | Ki [1] | IC50 (B2 bradykinin receptor) | IC50 [2] | IC50 (Substance-P receptor) | IC50 (Carbonic anhydrase 2) | IC50 [3] | Ki [3] | IC50 [4] | Ki [4] | IC50 [5] | IC50 [6] | Ki [6]

CN(Cc1ccc(C(C)(C)C)cc1)Cc1cccc2ccccc12 [BUTENAFINE]
Not Active: IC50 [1] | Ki [1] | IC50 (B2 bradykinin receptor) | IC50 [2] | IC50 (Substance-P receptor) | IC50 (Carbonic anhydrase 2) | IC50 [3] | Ki [3] | IC50 [4] | Ki [4] | IC50 [5] | IC50 [6] | Ki [6]

C[C@H](CS)C(=O)N1CCC[C@H]1C(=O)O [CAPTOPRIL]
Not Active: IC50 [1] | Ki [1] | IC50 (B2 bradykinin receptor) | IC50 [2] | IC50 (Substance-P receptor) | IC50 (Carbonic anhydrase 2) | IC50 [3] | Ki [3] | IC50 [4] | Ki [4] | IC50 [5] | IC50 [6] | Ki [6]

O=C(O)CCCc1ccc(N(CCCl)CCCl)cc1 [CHLORAMBUCIL]
Not Active: IC50 [1] | Ki [1] | IC50 (B2 bradykinin receptor) | IC50 [2] | IC50 (Substance-P receptor) | IC50 (Carbonic anhydrase 2) | IC50 [3] | Ki [3] | IC50 [4] | Ki [4] | IC50 [5] | IC50 [6] | Ki [6]

C[C@H](CCC(=O)O)[C@H]1CC[C@H]2[C@@H]3[C@H](O)C[C@@H]4C[C@H](O)CC[C@]4(C)[C@H]3C[C@H](O)[C@]12C [CHOLIC ACID]
Not Active: IC50 [1] | Ki [1] | IC50 (B2 bradykinin receptor) | IC50 [2] | IC50 (Substance-P receptor) | IC50 (Carbonic anhydrase 2) | IC50 [3] | Ki [3] | IC50 [4] | Ki [4] | IC50 [5] | IC50 [6] | Ki [6]

Cc1cc(C2CCCCC2)n(O)c(=O)c1 [CICLOPIROX]
Not Active: IC50 [1] | Ki [1] | IC50 (B2 bradykinin receptor) | IC50 [2] | IC50 (Substance-P receptor) | IC50 (Carbonic anhydrase 2) | IC50 [3] | Ki [3] | IC50 [4] | Ki [4] | IC50 [5] | IC50 [6] | Ki [6]

CC1=C2C(=CO[C@H](C)[C@H]2C)C(O)=C(C(=O)O)C1=O [CITRININ]
Not Active: IC50 [1] | Ki [1] | IC50 (B2 bradykinin receptor) | IC50 [2] | IC50 (Substance-P receptor) | IC50 (Carbonic anhydrase 2) | IC50 [3] | Ki [3] | IC50 [4] | Ki [4] | IC50 [5] | IC50 [6] | Ki [6]

CC(C)(C)NCC(O)c1cc(Cl)c(N)c(Cl)c1 (stereo not given) [CLENBUTEROL]
Not Active: IC50 [1] | Ki [1] | IC50 (B2 bradykinin receptor) | IC50 [2] | IC50 (Substance-P receptor) | IC50 (Carbonic anhydrase 2) | IC50 [3] | Ki [3] | IC50 [4] | Ki [4] | IC50 [5] | IC50 [6] | Ki [6]

CC(C)(Oc1ccc(Cl)cc1)C(=O)O [CLOFIBRIC ACID]
Not Active: IC50 [1] | Ki [1] | IC50 (B2 bradykinin receptor) | IC50 [2] | IC50 (Substance-P receptor) | IC50 (Carbonic anhydrase 2) | IC50 [3] | Ki [3] | IC50 [4] | Ki [4] | IC50 [5] | IC50 [6] | Ki [6]

Clc1cccc(Cl)c1NC1=NCCN1 [CLONIDINE]
Not Active: IC50 [1] | Ki [1] | IC50 (B2 bradykinin receptor) | IC50 [2] | IC50 (Substance-P receptor) | IC50 (Carbonic anhydrase 2) | IC50 [3] | Ki [3] | IC50 [4] | Ki [4] | IC50 [5] | IC50 [6] | Ki [6]

Cc1cc(C(C#N)c2ccc(Cl)cc2)c(Cl)cc1NC(=O)c1cc(I)cc(I)c1O (stereo not given) [CLOSANTEL]
Not Active: IC50 [1] | Ki [1] | IC50 (B2 bradykinin receptor) | IC50 [2] | IC50 (Substance-P receptor) | IC50 (Carbonic anhydrase 2) | IC50 [3] | Ki [3] | IC50 [4] | Ki [4] | IC50 [5] | IC50 [6] | Ki [6]

Cc1onc(-c2ccccc2Cl)c1C(=O)N[C@@H]1C(=O)N2[C@@H]1SC(C)(C)[C@@H]2C(=O)O [CLOXACILLIN]
Not Active: IC50 [1] | Ki [1] | IC50 (B2 bradykinin receptor) | IC50 [2] | IC50 (Substance-P receptor) | IC50 (Carbonic anhydrase 2) | IC50 [3] | Ki [3] | IC50 [4] | Ki [4] | IC50 [5] | IC50 [6] | Ki [6]

CC1CC(OC(=O)C(O)c2ccccc2)CC(C)(C)C1 (stereo not given) [CYCLANDELATE]
Not Active: IC50 [1] | Ki [1] | IC50 (B2 bradykinin receptor) | IC50 [2] | IC50 (Substance-P receptor) | IC50 (Carbonic anhydrase 2) | IC50 [3] | Ki [3] | IC50 [4] | Ki [4] | IC50 [5] | IC50 [6] | Ki [6]
